Experimental data taken from ChEMBL document CHEMBL5724796, “Tm Shift (DSF) assay results for EUbOPEN Chemogenomics Library” (2024).
Where “and” joins values, the source holds several entries; their conditions need not be identical. Identical values can stand only once.

What was measured:
Peregrin (Homo sapiens) = biological target: T1, Peregrin (Homo sapiens) (UniProt P55201); details: Compound concentration 20.0 uM
T1 sequence (whole entry): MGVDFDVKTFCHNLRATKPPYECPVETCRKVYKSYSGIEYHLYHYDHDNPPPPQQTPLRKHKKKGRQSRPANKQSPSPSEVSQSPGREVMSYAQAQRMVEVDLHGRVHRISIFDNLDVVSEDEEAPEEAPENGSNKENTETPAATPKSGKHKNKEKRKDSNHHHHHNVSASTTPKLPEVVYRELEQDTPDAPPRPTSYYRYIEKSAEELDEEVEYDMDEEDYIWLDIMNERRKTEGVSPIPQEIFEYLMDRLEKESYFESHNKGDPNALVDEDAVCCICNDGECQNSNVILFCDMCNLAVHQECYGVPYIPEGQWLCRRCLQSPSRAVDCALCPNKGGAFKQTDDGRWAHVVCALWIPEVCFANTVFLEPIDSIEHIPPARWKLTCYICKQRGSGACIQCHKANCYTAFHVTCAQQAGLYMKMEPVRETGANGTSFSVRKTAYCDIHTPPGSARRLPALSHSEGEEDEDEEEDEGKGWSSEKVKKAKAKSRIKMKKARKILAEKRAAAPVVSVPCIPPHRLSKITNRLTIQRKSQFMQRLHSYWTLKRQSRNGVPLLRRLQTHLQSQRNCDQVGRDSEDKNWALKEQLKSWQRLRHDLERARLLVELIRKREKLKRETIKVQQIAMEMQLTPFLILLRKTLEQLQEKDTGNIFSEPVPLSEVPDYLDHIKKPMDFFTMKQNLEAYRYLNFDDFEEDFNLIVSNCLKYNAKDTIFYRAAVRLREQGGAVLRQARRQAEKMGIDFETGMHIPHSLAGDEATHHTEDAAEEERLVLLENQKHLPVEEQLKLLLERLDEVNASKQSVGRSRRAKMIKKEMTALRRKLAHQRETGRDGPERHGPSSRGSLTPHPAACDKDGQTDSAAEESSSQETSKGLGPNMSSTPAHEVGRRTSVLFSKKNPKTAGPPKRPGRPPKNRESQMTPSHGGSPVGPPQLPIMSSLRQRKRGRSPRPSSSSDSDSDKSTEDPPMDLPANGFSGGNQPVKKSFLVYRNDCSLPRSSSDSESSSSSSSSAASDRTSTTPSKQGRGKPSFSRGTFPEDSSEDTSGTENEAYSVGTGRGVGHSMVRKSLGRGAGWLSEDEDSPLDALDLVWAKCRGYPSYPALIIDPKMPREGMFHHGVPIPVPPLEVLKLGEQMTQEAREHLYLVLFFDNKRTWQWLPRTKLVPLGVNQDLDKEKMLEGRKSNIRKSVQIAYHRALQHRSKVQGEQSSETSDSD

[1] = biological target: Fibroblast growth factor receptor 2 (Homo sapiens) (UniProt P21802); details: Compound concentration 20.0 uM
Sequence of Fibroblast growth factor receptor 2 (Homo sapiens) (P21802 22-821 limits assumed): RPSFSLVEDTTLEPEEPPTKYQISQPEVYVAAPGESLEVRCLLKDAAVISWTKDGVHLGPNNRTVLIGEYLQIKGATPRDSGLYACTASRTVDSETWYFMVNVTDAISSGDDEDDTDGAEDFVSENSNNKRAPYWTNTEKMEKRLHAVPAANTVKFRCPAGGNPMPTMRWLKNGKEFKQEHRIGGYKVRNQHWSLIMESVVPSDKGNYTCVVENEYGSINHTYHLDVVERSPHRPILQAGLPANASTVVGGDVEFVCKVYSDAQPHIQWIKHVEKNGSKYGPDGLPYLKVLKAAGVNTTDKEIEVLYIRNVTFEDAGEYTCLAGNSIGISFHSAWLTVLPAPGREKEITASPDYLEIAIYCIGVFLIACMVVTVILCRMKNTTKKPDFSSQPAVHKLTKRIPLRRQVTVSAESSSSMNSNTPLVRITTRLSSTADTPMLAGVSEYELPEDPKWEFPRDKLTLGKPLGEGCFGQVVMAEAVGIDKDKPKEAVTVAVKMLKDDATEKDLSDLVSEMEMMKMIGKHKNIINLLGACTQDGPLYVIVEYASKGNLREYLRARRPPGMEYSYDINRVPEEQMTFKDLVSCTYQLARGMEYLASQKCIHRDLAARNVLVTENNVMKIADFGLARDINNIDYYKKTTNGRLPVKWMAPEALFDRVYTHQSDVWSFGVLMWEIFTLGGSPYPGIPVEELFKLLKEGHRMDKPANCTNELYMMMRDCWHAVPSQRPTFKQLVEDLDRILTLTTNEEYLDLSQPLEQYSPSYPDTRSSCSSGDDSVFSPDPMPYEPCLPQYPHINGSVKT
Description: Thermal Shift Assay. Domain: start/stop: T457-E768

| Compound | ΔTm (Peregrin (Homo sapiens)) | ΔTm [1] |
| --- | --- | --- |
| OC[C@H]1O[C@@H](c2ccc(F)c(Cc3cc4ccccc4s3)c2)[C@H](O)[C@@H](O)[C@@H]1O | 1.12 °C | -0.55 °C |
| CC(C)(CNC(=O)c1cccc(-c2noc(C(F)(F)F)n2)c1)c1coc(-c2ccccc2)n1 | -1.34 °C | 0.16 °C |
| Nc1nc(C(F)(F)F)nc2c1nnn2C[C@H]1CN(Cc2nccs2)CCO1 | 1.22 °C | 0.48 °C |
| CNCCC(Oc1ccccc1OC)c1ccccc1 (stereo unspecified) | 1.17 °C | 0.13 °C |
| CNc1nccc(CN([C@H]2CC[C@H](N)CC2)S(=O)(=O)c2ccc(S(=O)(=O)N(Cc3ccc(Cl)cc3)C3CCCC3)cc2)n1 | -1.21 °C | -1.14 °C |
| CCCOc1cc(OCCCCN(C)C)cc(Oc2cc3c(cc2NS(=O)(=O)c2ccc(OC)c(OC)c2)n(C)c(=O)n3C)c1 | 9.12 °C | 0.62 °C |
| N[C@](CCCCB(O)O)(CCN1CCCCC1)C(=O)O | 2.66 °C | 0.8 °C |
| FC(F)(F)Oc1ccc(Oc2ccnc(N3CCC(NC(=S)Nc4cccnc4)CC3)c2Cl)c(Cl)c1 | 0.92 °C and 3.5 °C | -3.46 °C and 0.73 °C |
| CC(C)Cn1c(=O)n(C)c(=O)c2c(C(=O)N3CC[C@@H](O)C3)c(Cc3ccnc4ccccc34)sc21 | 0.74 °C | 0.61 °C |
| Cc1[nH]nc(C(F)(F)F)c1Cc1sc2c(c1C(=O)N1C[C@](C)(O)CO1)c(=O)n(C)c(=O)n2C(C)C | 0.94 °C | 1.06 °C |
| O=C(NCC1(c2nc(-c3ccccc3)cs2)CCOCC1)c1cccc(-c2noc(C(F)(F)F)n2)c1 | -4.49 °C | -0.34 °C |
| C=C(C)[C@@H](CC=C(C)C)C[C@@]12C[C@@H](CC=C(C)C)C(C)(C)[C@@](CC=C(C)C)(C(=O)C(C(=O)c3ccc(O)c(O)c3)=C1O)C2=O | -4.72 °C | -5.95 °C |
| CCOc1ccc(Cc2cc([C@]34OC[C@](CO)(O3)[C@@H](O)[C@H](O)[C@H]4O)ccc2Cl)cc1 | 0.95 °C | 0.47 °C |
| O=C(CN1CCN(c2ccc(F)cn2)CC1)Nc1nc2c(s1)CCCC2 | 2.63 °C | -0.21 °C |
| CC#C[C@]1(O)CC[C@H]2[C@@H]3CCC4=CC(=O)CCC4=C3[C@@H](c3ccc(N(C)C)cc3)C[C@@]21C | -2.63 °C | 0.14 °C |
| COc1cccc(OC)c1S(=O)(=O)Nc1noc2cc(Cn3cccn3)cc(OC)c12 | -0.57 °C | -3.46 °C |
| Cc1cc(S(C)(=O)=O)c(S(C)(=O)=O)cc1C(=O)NC(=N)N | 2.74 °C | 0 °C |
| Cc1[nH]c2c(N3CCO[C@H](CO)C3)c(C#N)c(C(F)(F)F)nc2c1Cl | 1.11 °C | 0.41 °C |
| CCOc1ccc(Cc2cc([C@@H]3O[C@H](CO)[C@@H](O)[C@H](O)[C@H]3O)ccc2Cl)cc1 | -0.19 °C | 0.15 °C |
| COC(=O)[C@@H]1CC2=CC(=O)CC[C@]2(C)[C@@]23O[C@@H]2C[C@@]2(C)[C@@H](CC[C@@]24CCC(=O)O4)[C@H]13 | -1.07 °C | 1.06 °C |
| CC(C)(C)OC(=O)Nc1ccc(-c2cc(C(=O)NCCCCCCC(=O)NO)no2)cc1 | 0 °C | -3.33 °C |

| Compound | ΔTm (Peregrin (Homo sapiens)) | ΔTm [1] |
| --- | --- | --- |
| CCC(CC)(NC(=O)C(C)C)C(=O)N[C@@H](CCCNC(=N)N)C(=O)NC1(C(=O)NC(c2ccc(F)cc2)c2ccc(F)cc2)CCCC1 | -0.95 °C | -3.44 °C |
| CCCc1nc(C)c2c(C)nc3ccc(OC)nc3n12 | -0.07 °C | -0.53 °C |
| Nc1ncnc2c1ncn2[C@@H]1O[C@H](C[C@@H](N)CC[C@H](N)C(=O)O)[C@@H](O)[C@H]1O | -1.27 °C | -1.33 °C |
| N[C@@H](CC(=O)N1CCN(C(c2ccc(F)cc2)c2ccc(F)cc2)CC1)C(=O)N1Cc2ccccc2C1 | -1.34 °C | 0 °C |
| Cc1cc(OCc2nnc(SC3CCCC3)n2-c2cccnc2)ccc1-c1ccc(S(C)(=O)=O)cc1 | -5.44 °C | -3.4 °C |
| O=C(C[C@@H](C(F)F)n1ccc(F)n1)N1CCC(O)(Cn2cnc3c(cnn3-c3ccc(F)cc3)c2=O)CC1 | 0.9 °C | 0.2 °C |
| COc1cc(-c2cn(C)c(=O)c3cnccc23)cc(OC)c1CN(C)C | 6.51 °C | 0.18 °C |
| CN(C)CCCN(CC[C@H](N)C(=O)O)C[C@H]1O[C@@H](n2cnc3c(N)ncnc32)[C@H](O)[C@@H]1O | -1.18 °C | -1.19 °C |
| CC1=NN(c2ccc(C(=O)O)cc2)C(=O)/C1=C/c1ccc(-c2cc(C)c(C)cc2[N+](=O)[O-])o1 | -1.58 °C | 0.86 °C |
| CN(Cc1ccccc1)c1ccc2cc(C(=O)O)c(=O)oc2c1 | 0.71 °C | 0.34 °C |
| Cc1ncsc1-c1ccc(CNC(=O)[C@@H]2C[C@@H](O)CN2C(=O)[C@@H](NC(=O)COCCOCCOCCNC(=O)C[C@@H]2N=C(c3ccc(Cl)cc3)c3c(sc(C)c3C)-n3c(C)nnc32)C(C)(C)C)cc1 | -1.64 °C | 0.61 °C |
| CCN(CC)C(=O)/C(C#N)=C/c1cc(O)c(O)c([N+](=O)[O-])c1 | 1.31 °C | 0.06 °C |
| CC(C)C(=O)c1c(C(C)C)nn2ccccc12 | 0.32 °C | -0.49 °C |
| CN1CCc2c(n(Cc3ccc(C(=O)NO)cc3)c3ccccc23)C1 | -0.68 °C | -3.78 °C |
| O=C(Nc1ccccc1C(=O)O)c1cc(S(=O)(=O)c2ccccc2)ccc1Cl | 0.95 °C | -0.48 °C |
| Cn1ncnc1[C@H]1C2=c3c(cc(F)cc3=N[C@@H]1c1ccc(F)cc1)C(=O)NN2 | 3.07 °C | 0.09 °C |
| COC[C@@H]1CCCN1S(=O)(=O)c1ccc2c(c1)C(=O)C(=O)N2 | -0.85 °C | 0.48 °C |
| CS(=O)(=O)N1CCN(C(=O)c2cnc3ccc(F)cc3c2-c2ccc(C3(C#N)CC3)cc2)CC1 | 0.38 °C | 0.1 °C |
| CCCCCCNC(=O)n1cc(F)c(=O)[nH]c1=O | 0.95 °C | 0.03 °C |
| CCCn1/c(=N/C(=O)c2cccc(C(N)=O)c2)[nH]c2ccccc21 | -1.26 °C | 0.22 °C |
| COc1ccc([C@@H]2CNC(=O)C2)cc1OC1CCCC1 | 0.39 °C | -0.37 °C |

| Compound | ΔTm (Peregrin (Homo sapiens)) | ΔTm [1] |
| --- | --- | --- |
| Fc1ccc(CNc2ncnc3ccc(F)cc23)cc1 | 1.26 °C | -0.12 °C |
| Nc1cc2c3c(c1)C(c1ccccc1)=N[C@@H](NC(=O)c1cccnc1)C(=O)N3CC2 | 0.71 °C | 0.08 °C |
| CNc1ncc2cc(-c3cc(NC(=O)NCCC(C)(C)C)c(F)cc3C)c(C)nc2n1 | -0.16 °C | 5.58 °C |
| CC(=O)NCC(=O)N1CCC[C@@H]1B(O)O | 2.29 °C | 0.51 °C |
| CCCCOc1c(OC)cc(C(=O)NCC2(N(C)C)CCOCC2)cc1OC | -1.37 °C | -0.02 °C |
| Nc1ncnc2c1nc(NCc1ccc(-c3ccccc3)cc1)n2[C@@H]1O[C@H](CO)[C@@H](O)[C@H]1O | 0.29 °C | 0.12 °C |
| COC(=O)C1=C(C(=O)OC)[C@@]2([C@@H](Cc3ccc(C)cc3)Nc3ccccc3)C=C[C@@H]1O2 | -3.55 °C | 0.51 °C |
| COC(=O)c1ccc(CN2CCC(O)(Cn3cnc4c(-c5ccc(CN)cc5)n(C)nc4c3=O)CC2)c(Cl)c1 | 1.55 °C | -0.37 °C |
| O=[N+]([O-])c1c(Nc2cc(F)cc(Cl)c2)ccc2nonc12 | 0.04 °C | -0.15 °C |
| C[C@H](NC(=O)CCc1nc2ccccc2c(=O)[nH]1)c1ccccc1 | -0.15 °C | 0.69 °C |
| N#Cc1ccc(Nc2cnccc2SCc2ccccc2C(=O)O)c2ccccc12 | 1.8 °C | 0.49 °C |
| O=C(O)CCNc1cc(N2CCc3ccccc3CC2)nc(-c2cccnc2)n1 | -1.01 °C | 0.9 °C |
| CN1CC(=O)N2[C@H](c3ccc4c(c3)OCO4)c3[nH]c4ccccc4c3C[C@@H]2C1=O | 0.06 °C | -0.7 °C |
| NC(=O)c1ccc(Oc2ccc(C(N)=O)cc2)cc1 | -2.11 °C | 0.24 °C |
| CN1CCN(c2nc(-c3ccc(C(=O)NC4(C(=O)NCC#N)CCCCC4)cc3)cs2)CC1 | -1.32 °C | 0.15 °C |
| N#Cc1nc2c(nc1C#N)-c1ccccc1C2=NOCc1ccccc1 | 5.25 °C | 0.78 °C |
| CC(C)(O)c1ccc(-c2nc3c(F)cc(F)cc3c(=O)[nH]2)cc1 | -0.9 °C | -3.32 °C |
| O=C(N1CCCC[C@@H]1Cc1ccccc1)n1cc(-c2ccc(-c3ccccc3)cc2)nn1 | 0.6 °C | 0 °C |
| Cc1cc(C)nc(SCC(=O)Nc2ncc(Cc3cccc4ccccc34)s2)n1 | 3 °C | -1.85 °C |
| Cc1cccc(N/N=C(\C(=O)c2cccs2)C(=O)C(F)(F)F)c1 | 1.4 °C | -0.22 °C |
| CCCSc1nc2c(c(=O)n1-c1ccccc1)SCC2 | 0.27 °C | 0.36 °C |
